Experimental data from patent publication US10856562B2, “Flavor composition and edible compositions containing same” (MARS, INCORPORATED, priority 2013, dated 2020).
Square brackets hold non-standard residues; d marks the D form. Ends that are not written are not given here. pGlu = O=C1CC[C@@H](C(=O)O)N1

System: panelists
Test: Attribute perception scores of flavor enhancers in solution (Example 6)
Assay type: in vivo, human
Parameters: key to Metallic / Numbing / Atringent / Salt / Sweet / Sour / Bitter / Umami / Sour, mean evaluation score in solution / Numbing, mean evaluation score in solution / Astringent / Umami FF: 15-point intensity scale, 0 = none, 15 = very strong
Conditions: for Astringent / Bitter / Flinty/Mineral / Metallic / Numbing / Salt / Sour / Sweet / Umami / Umami FF / Atringent / Mineral/Flinty / Umami/brothy: solution
Method: Descriptive attributes (e.g., taste, flavor and chemical feeling factors) of three use levels of pGlu-Cys (FE-35), pGlu-Cys-Gly (FE-36), pGlu-Cys-Cys (FE-37), pGlu-Cys-Val (FE-38) and pGlu-Val-Cys (UE-30) flavor composition peptides were determined. The three use levels were as follows: 1.0 ppb, 10.0 ppb and 100.0 ppb.
Data was collected for the attributes of the product in-mouth for the use levels according to the following protocol: • The samples were analyzed for flavor by six to nine members of a panel, trained and experienced in flavor evaluation using the Spectrum™ method. Samples were evaluated across multiple panel sessions. • The strength of each attribute was rated on a 15-point scale, where 0=none and 15=very strong. • This scale incorporates the ability to use tenths of a point and therefore has the potential of 150 scale differentiations. • The scale may be expanded beyond 15 points to include extreme ratings if necessary.
A summary of the concentrations of NaCl, water and flavor composition peptides in the solution samples is described in table 24.
The panelists evaluated each sample for the attributes described by table 25.

[1] = 10.0 ppb, mean evaluation score
[2] = 100.0 ppb, mean evaluation score
[3] = Concentration 1, MAX, 15-point scale
[4] = Concentration 1, MEAN, 15-point scale
[5] = Concentration 1, MIN, 15-point scale
[6] = Concentration 10, MAX, 15-point scale
[7] = Concentration 10, MEAN, 15-point scale
[8] = Concentration 10, MIN, 15-point scale
[9] = Concentration 100, MAX, 15-point scale
[10] = Concentration 100, MEAN, 15-point scale
[11] = Concentration 100, MIN, 15-point scale

[pGlu]-Cys-Gly [FE-36]
2.6: Salt (1.0 ppb, mean evaluation score) | Salt [4]
1.0: Mineral/Flinty [3] | Sweet [3] | Umami/brothy [3] | Umami [5] | Mineral/Flinty [9]
2.0: Umami [3] | Umami [6]
0.2: Sweet (1.0 ppb, mean evaluation score) | Sweet [4]
2.3: Salt [6]
0.3: Umami (1.0 ppb, mean evaluation score) | Umami/brothy [4]
0.0: Astringent (1.0 ppb, mean evaluation score) | Bitter (1.0 ppb, mean evaluation score) | Numbing (1.0 ppb, mean evaluation score) | Sour (1.0 ppb, mean evaluation score) | Astringent [1] | Bitter [1] | Metallic [1] | Numbing [1] | Sour [1] | Sweet [1] | Astringent [2] | Bitter [2] | Metallic [2] | Numbing [2] | Sour [2] | Sweet [2] | Umami [2] | Atringent [3] | Bitter [3] | Numbing [3] | Sour [3] | Atringent [4] | Bitter [4] | Numbing [4] | Sour [4] | Atringent [5] | Bitter [5] | Metallic [5] | Mineral/Flinty [5] | Numbing [5] | Sour [5] | Sweet [5] | Umami/brothy [5] | Atringent [6] | Bitter [6] | Metallic [6] | Numbing [6] | Sour [6] | Sweet [6] | Atringent [7] | Bitter [7] | Metallic [7] | Numbing [7] | Sour [7] | Sweet [7] | Atringent [8] | Bitter [8] | Metallic [8] | Mineral/Flinty [8] | Numbing [8] | Sour [8] | Sweet [8] | Umami [8] | Umami/brothy [8] | Atringent [9] | Bitter [9] | Metallic [9] | Numbing [9] | Sour [9] | Sweet [9] | Umami/brothy [9] | Atringent [10] | Bitter [10] | Metallic [10] | Numbing [10] | Sour [10] | Sweet [10] | Umami/brothy [10] | Atringent [11] | Bitter [11] | Metallic [11] | Mineral/Flinty [11] | Numbing [11] | Sour [11] | Sweet [11] | Umami/brothy [11]
1.9: Salt [1] | Salt [7]
No distinct patterns are seen: Patterns of attributes in solution as concentrations increase (1.0 to 100 ppb)
0.8: Flinty/Mineral [1] | Flinty/Mineral [2] | Metallic [3] | Umami/brothy [6] | Mineral/Flinty [7] | Mineral/Flinty [10]
3.0: Salt [3] | Salt [9] | Umami [9]
1.6: Umami FF [2] | Umami [10]
2.1: Salt [2] | Salt [10]
0.5: Umami [11]
0.7: Flinty/Mineral (1.0 ppb, mean evaluation score) | Mineral/Flinty [4]
1.5: Umami FF (1.0 ppb, mean evaluation score) | Umami [4] | Mineral/Flinty [6] | Salt [8] | Salt [11]
0.1: Metallic (1.0 ppb, mean evaluation score) | Umami [1] | Metallic [4] | Umami/brothy [7]
0.9: Umami FF [1] | Umami [7]
2.5: Salt [5]

[pGlu]-Cys [FE-35]
0.0: Astringent (1.0 ppb, mean evaluation score) | Metallic (1.0 ppb, mean evaluation score) | Numbing (1.0 ppb, mean evaluation score) | Sour (1.0 ppb, mean evaluation score) | Astringent [1] | Bitter [1] | Numbing [1] | Sour [1] | Astringent [2] | Bitter [2] | Numbing [2] | Sour [2] | Atringent [3] | Metallic [3] | Numbing [3] | Sour [3] | Atringent [4] | Metallic [4] | Numbing [4] | Sour [4] | Atringent [5] | Bitter [5] | Metallic [5] | Numbing [5] | Sour [5] | Sweet [5] | Atringent [6] | Bitter [6] | Numbing [6] | Sour [6] | Atringent [7] | Bitter [7] | Numbing [7] | Sour [7] | Atringent [8] | Bitter [8] | Metallic [8] | Mineral/Flinty [8] | Numbing [8] | Sour [8] | Sweet [8] | Umami [8] | Umami/brothy [8] | Atringent [9] | Bitter [9] | Numbing [9] | Sour [9] | Atringent [10] | Bitter [10] | Numbing [10] | Sour [10] | Atringent [11] | Bitter [11] | Metallic [11] | Mineral/Flinty [11] | Numbing [11] | Sour [11] | Sweet [11] | Umami [11] | Umami/brothy [11]
decreases slightly: Umami aromatic in solution as the concentration increases (1.0 to 100 ppb)
0.7: Flinty/Mineral [2] | Mineral/Flinty [10]
2.6: Salt [1] | Salt [7]
2.2: Salt [8]
0.5: Bitter [3] | Mineral/Flinty [5]
shows no distinct pattern: Umami feeling factor in solution as the concentration increases (1.0 to 100 ppb)
0.3: Sweet (1.0 ppb, mean evaluation score) | Metallic [1] | Sweet [1] | Metallic [2] | Sweet [4] | Metallic [7] | Sweet [7] | Metallic [10]
1.2: Mineral/Flinty [6]
show no distinct pattern: Mineral/Flinty aromatic in solution as the concentration increases (1.0 to 100 ppb) | Salt perception level in solution as the concentration increases (1.0 to 100 ppb)
1.1: Umami FF [1] | Umami FF [2] | Umami [7] | Umami [10]
0.1: Bitter (1.0 ppb, mean evaluation score) | Bitter [4]
0.9: Flinty/Mineral (1.0 ppb, mean evaluation score) | Flinty/Mineral [1] | Mineral/Flinty [4] | Mineral/Flinty [7]
0.2: Sweet [2] | Umami [2] | Sweet [10] | Umami/brothy [10]
1.5: Umami (1.0 ppb, mean evaluation score) | Umami FF (1.0 ppb, mean evaluation score) | Umami [4] | Umami/brothy [4] | Salt [5] | Mineral/Flinty [9] | Umami [9] | Salt [11]
1.0: Mineral/Flinty [3] | Sweet [3] | Umami [5] | Umami/brothy [5] | Sweet [6] | Metallic [9] | Sweet [9] | Umami/brothy [9]
1.8: Salt (1.0 ppb, mean evaluation score) | Salt [4]
2.5: Salt [9]
2.0: Salt [2] | Salt [3] | Umami [3] | Umami/brothy [3] | Metallic [6] | Umami [6] | Umami/brothy [6] | Salt [10]
3.0: Salt [6]
0.8: Umami [1] | Umami/brothy [7]
